Measurements reported in patent publication US20160158252A1, “PHARMACEUTICAL COMPOSITION AND USE OF DIETHYL (2-CYANOETHYL)PHOSPHONATE” (Olatec Therapeutics LLC, priority 2013, published 2016).
Like-named read-outs stand apart in the source and are kept apart here.

How the values were obtained:
[1] = tested on: tail flick reaction to heat (49° C. water bath); test: Tail flick test in mice (oral administration); type: in vivo
Description: Tail flick test is a test of the pain response in animals. Tail flick test is used in basic pain research and to measure the effectiveness of analgesics, by observing the tail flick reaction to heat in an animal. This test assesses the nociceptive response to a local pain stimulus, and the ability of a drug to inhibit this response.
Vehicle control (water) and test compound diethyl (2-cyanoethyl) phosphonate in water were administered by oral gavage to mice with a volume of 10 mL/kg, twice, at 60 and 15 minutes before the first tail flick measurement. The test compound was administered at a dosage of 10, 30, or 100 mg/kg in water. The positive control compound morphine was administered by subcutaneous injection at 8 mg/kg with a volume of 8 mL/kg, at 15 minutes before the first tail flick measurement. Each group had 10 mice.
The response of mice to heat stimulus was evaluated by measuring the time of tail-flick or tail-flick latency from 49° C. water bath. Briefly, the animal was placed in a restrainer with its tail hanging down. Approximately 2 inches of the tail was immersed in a beaker of water at 38±1° C. for about 30 seconds, and this was done twice to acclimate the animal to the procedure.
Subsequently, approximately 2 inches of the tail was immersed in a beaker of water at 49±1° C., at which point a timer was started.
Tail flick measurements were made 60, 80, 100, and 120 minutes post administration of the first dosage of test compound. An ANOVA was done, and if p<0.05, a Dunnett's t test was employed to calculate significant difference between vehicle control and test compound treated groups. A pairwise Student's t test was used to calculate differences between the morphine group and the control group. […] Analysis with p-values <0.05 is considered significant.

[2] = tested on: formalin-induced paw licking; test: Formalin test in mice (oral administration); type: in vivo, mice (male CD-1); conditions: for Licks per min (Between 0-10 min): early phase, vehicle 3.3; for Licks per min (Between 10-40 min): late phase, vehicle 1.4
Description: Formalin test is a model of continuous pain resulting from formalin-induced tissue injury. Nociceptive and inflammatory pain was induced by injection of a dilute formalin solution into the paw, resulting in nocifensive behavior including paw flinching. The formalin model encompasses inflammatory, neurogenic, and central mechanism of pain. The early phase of pain (from 0 to about 10 minutes) is due to nociceptive mechanism and the late phase of pain (from 10-40 minutes) is due to a combination of inflammatory pain and nociceptive mechanism. Pain behavior is assessed using manual paw licking measurements. The endpoints of the study are the number of paw licking events. (Hunskaar et al., Pain, 30:103-114, 1987; Li et al., Molecular Pain, 6:11, 2010)
Male CD-1 mice, about 34 g, were used in the study. Mice had free access to food and water, were maintained on a 12 hour:12 hour light/dark schedule for the entire duration of the study, and housed in soft bedding five per cage.
Immediately prior to testing (at time 0), mice were restrained in a cloth and injected with 20 μL of a 5% formalin solution, subcutaneously into the dorsal surface of the left hind paw. Vehicle control (n=10, water) and test compound diethyl (2-cyanoethyl) phosphonate (n=9, in water) were administered by oral gavage with a volume of 10 mL/kg to mice. The amounts of test compound were 10, 30, or 100 mg/kg per dose.
Positive control morphine was administered by subcutaneous injection at 4 mg/kg with a volume of 4 mL/kg to mice (n=10). […] The purpose of morphine is not to serve as a comparison with the test compound.
Morphine was subcutaneously administered once 15 minutes before formalin injection. The test compounds and vehicle control were orally administered twice (BID), at 60 and 15 minutes before formalin injection at time zero.
Following formalin injection, animals were placed in individual cages, and manually observed for 60 minutes. The licking events were recorded in five minute intervals continuously for a total of 60 minutes.
The number of licking events per minute was calculated between 0-10 minutes and 10-40 minutes for vehicle, positive control, and test compound. An ANOVA was done, and if p<0.05, a Dunnett's t test was employed to calculate significant difference between vehicle control and test compound treated groups. A pairwise Student's t test was used to calculate differences between the morphine group and the control group. Significance is set at P<0.05 level.

[3] = tested on: arachidonic acid-induced ear swelling; test: Arachidonic acid-induced ear swelling in mice (intraperitoneal administration); type: in vivo; conditions: measured at 90 minutes
Description: The protocols of this experiment were similar to Example 3, except the following differences. Test substance diethyl (2-cyanoethyl) phosphonate was dissolved in PBS to generate 1, 3 and 10 mg/mL testing solutions. Vehicle (PBS) at 10 mL/kg and diethyl (2-cyanoethyl) phosphonate at 10 mL/kg (10, 30, and 100 mg/kg) were administered intraperitoneally at 1 hour, and again 15 minutes before arachidonic acid (0.5 mg/ear) challenge. The positive control dexamethasone was administered orally 3 hours before arachidonic acid.
An ANOVA was done, and if p<0.05, a Dunnett's t test was employed to calculate significant difference between vehicle control and treated groups. Significance is set at P<0.05 level.
An ANOVA was done, and if p<0.05, a Dunnett's t test was employed to calculate significant difference between vehicle control and test compound treated groups. A pairwise Student's t test was used to calculate differences between the dexamethasone group and the control group. Significance is set at P<0.05 level.

[4] = tested on: arachidonic acid-induced ear swelling; test: Topical arachidonic acid-induced ear swelling model in mice (topical administration); type: in vivo, mice (male ICR); conditions: 90 minutes after arachidonic acid
Description: The test compound, indomethacin (positive control), and vehicle (acetone:ethanol/1:1) were evaluated for anti-inflammatory activity in a topical arachidonic acid-induced ear swelling model in mice.
Male ICR mice weighing 22±2 g were used and randomly divided; the test compound and vehicle control had 10 mice, and indomethacin had 5 mice. Arachidonic Acid (0.5 mg in 20 μl of acetone:ethanol/1:1) was applied topically to the anterior and posterior surfaces of the right ear of each mice. Test substances (in vehicle) and vehicle, as listed in Table 3 were similarly applied 30 min before and 15 min after arachidonic acid application. The thickness of the right ear and the left ear was measured and the difference calculated as an indication of the inflammation in the right ear. Ear swelling was measured by a Dyer model micrometer gauge at 60 and 90 minutes after arachidonic acid application as an index of inflammation. Percent inhibition was calculated according to the formula: Ic−It/Ic×100, where Ic and It refers to increase of ear thickness (mm) in control and treated mice, respectively. An ANOVA was done, and if p<0.05, a Dunnett's t test was employed to calculate significant difference between vehicle control and test compound treated groups. A pairwise Student's t test was used to calculate differences between the indomethacin group and the control group. Significance is set at P<0.05 level.

[5] = tested on: formalin-induced paw licking; conditions: for Licks per min (Between 0-10 min) / Licks per min (Between 10-40 min): 375 mM topical BID; for Licks per min (Between 0-10 min): early phase, vehicle 4.4; for Licks per min (Between 10-40 min): late phase, vehicle 1.7
Description: The test compound diethyl (2-cyanoethyl) phosphonate (375 mM in vehicle, n=16) and vehicle control (acetone:ethanol 1:1, n=16) were administered topically by submerging the mouse left hind paw in the respective solution for about 30 seconds. The paw was then withdrawn and wiped with tissue to avoid excess dermal drying.
Positive control morphine was administered by subcutaneous injection at 4 mg/kg with a volume of 4 mL/kg to mice (n=16).
Morphine was subcutaneously administered once 15 minutes before formalin injection. The test compounds and vehicle control were topically administered twice (BID), at 90 and 15 minutes before formalin injection.
Following formalin injection, animals were placed in individual cages, and manually observed for 60 minutes. The licking events were recorded in five minute intervals continuously for a total of 40 minutes.
The number of licking events per minute was calculated between 0-10 minutes and 10-40 minutes for vehicle, positive control, and test compound. A two-sample t-test was done to compare the vehicle group with the test compound group. Significance is set at P<0.05 level. The same statistics were done comparing the vehicle group with the positive control group.

[6] = tested on: IL-6, TNFα, IFNγ, MIP-2 and RANTES; test: Pro-inflammatory cytokine release in rat challenged in vivo with lipopolysaccharide; conditions: given orally to rat, LPS challenge in vivo
[7] = 100 mg/kg oral BID, listed as test compound

CN1CC[C@]23c4c5ccc(O)c4O[C@H]2[C@@H](O)C=C[C@H]3[C@H]1C5 [Morphine, morphine, reference compound]
Tail flick latency vs vehicle-treated mice ([1]; mouse, in vivo): statistically significant tail flick latency at all measured time points | Efficacy after 40 minutes (licking events) ([2]; mouse, in vivo): did not last after 40 minutes

C[C@@H]1C[C@H]2[C@@H]3CCC4=CC(=O)C=C[C@]4(C)[C@@]3(F)[C@@H](O)C[C@]2(C)[C@@]1(O)C(=O)CO [Dexamethasone, dexamethasone, reference compound]
% Inhibition of ear swelling ([3]; 0.3 mg/kg orally 3 hours before arachidonic acid): 29%

COc1ccc2c(c1)c(CC(=O)O)c(C)n2C(=O)c1ccc(Cl)cc1 [Indomethacin, indomethacin, reference compound]
% Inhibition of ear swelling ([4]; 14 mM, 20 μL (0.1 mg/ear) applied twice topically): 58%

CCOP(=O)(CCC#N)OCC [Diethyl (2-cyanoethyl) phosphonate, Diethyl (2-cyanoethyl)phosphonate]
% Inhibition of ear swelling ([4]; 375 mM in acetone:ethanol (1:1), 20 μL (1.4 mg/ear) applied twice topically): 55% | % Inhibition of ear swelling ([4]; 375 mM in acetone:ethanol (1:1), 20 μL (1.4 mg/ear) applied twice topically, listed as active compound): anti-inflammatory | % Inhibition of ear swelling ([4]; 375 mM in acetone:ethanol (1:1), 20 μL (1.4 mg/ear) applied twice topically, listed as tested compound): 55% | % Inhibition of ear swelling ([3]; 10 mg/kg intraperitoneally, twice): −8% | % Inhibition of ear swelling ([3]; 30 mg/kg intraperitoneally, twice): 0% | % Inhibition of ear swelling ([3]; 100 mg/kg intraperitoneally, twice): 34% | % Inhibition of ear swelling ([3]; 100 mg/kg intraperitoneally, twice, listed as tested compound): 37% | Tail flick latency vs vehicle-treated mice ([1]; 30 mg/kg oral, twice, 60, 80, 100, 120 minutes): statistically significant tail flick latency at 60 and 80 minutes | Tail flick latency vs vehicle-treated mice ([1]; 100 mg/kg oral, twice, 60, 80, 100, 120 minutes): statistically significant tail flick latency at 60 and 100 minutes | Licking events, difference from control ([2]; 10 mg/kg oral BID): did not show a statically significant difference from control | Licking events, difference from control ([2]; 30 mg/kg oral BID): did not show a statically significant difference from control | Efficacy after 40 minutes (licking events) ([2]; 100 mg/kg oral BID): did not last after 40 minutes | Licks per min (Between 0-10 min) ([2]; 100 mg/kg oral BID): 3.1 licks per min | Licks per min (Between 0-10 min) [2, 7]: no statistically significant difference | Licks per min (Between 10-40 min) ([2]; 100 mg/kg oral BID): 0.59 licks per min | Licks per min (Between 10-40 min) [2, 7]: statistically significant (p<0.05) reduction | Licks per min (Between 0-10 min) [5]: 4.0 licks per min | Licks per min (Between 0-10 min) ([5]; listed as test compound): no statistically significant difference | Licks per min (Between 10-40 min) [5]: 1.1 licks per min | Licks per min (Between 10-40 min) ([5]; listed as test compound): statistically significant (p<0.05) reduction | Paw licking events after topical application alone without injection of formalin ([5]; 375 mM topical, no formalin): negligible number of paw licking events | Pro-inflammatory cytokine release (IL-6, TNFα, IFNγ, MIP-2 and RANTES) [6]: effective in inhibiting pro-inflammatory cytokine release
